Earlier results on 2 compounds are cited in paper PMC4366302 (Organic & biomolecular chemistry, 2015).

For the series the following is noted: known inherent solubilities.

With `O=C(NC1=CC(=O)[C@H]2O[C@H]2[C@H]1O)c1cc2ccccc2[nH]c1=O` [PBS-1086], the “S0 (inherent solubility of drug)” value was 4.5 ± 0.90 µM.
`O=C1Cc2cc(CCN3CCN(c4nsc5ccccc45)CC3)c(Cl)cc2N1` [Ziprasidone, ziprasidone]: the “S0 (inherent solubility of drug)” value was 63 ± 3.5 µM.
